In patent US7456296B2, “Method for preparation of crystalline perindopril erbumine” (Lupin Ltd, priority 2003, dated 2008):

How the values were obtained:
[1] = Compressibility Index (Flowability) by standard methods; assay type: physicochemical; settings: crystalline powder
Method: (§1) Compressability Index, or in other words the Flowability of the two materials were determined by standard methods practiced in the art. The Particle Size Distribution was determined using a Mastersizer 2000, Version 2 instrument with cyclohexane as the dispersant.

[2] = Particle Size Distribution, Mastersizer 2000 with cyclohexane as the dispersant; assay type: physicochemical
Method: as §1

[3] = final printed label of ACEON Tablets, cited from earlier work

## CCC[C@H](N[C@@H](C)C(=O)N1[C@H](C(=O)O)C[C@@H]2CCCC[C@@H]21)C(=O)OCC [Perindopril erbumine crystallized as per the method of U.S. ]
[1]
  Compressibility Index: 20.00
[2]
  Particle Size Distribution (10%): 16.39μ (10%);
  Particle Size Distribution (50%): 70.18μ (50%);
  Particle Size Distribution (90%): 188.11μ (90%)

## CCC[C@H](N[C@@H](C)C(=O)N1[C@H](C(=O)O)C[C@@H]2CCCC[C@@H]21)C(=O)OCC [Perindopril erbumine crystallized as per the method of the p]
[1]
  Compressibility Index: 23.8
[2]
  Particle Size Distribution (10%): 9.06μ (10%);
  Particle Size Distribution (50%): 36.37μ (50%);
  Particle Size Distribution (90%): 119.78μ (90%)

## CCC[C@H](N[C@@H](C)C(=O)N1[C@H](C(=O)O)C[C@@H]2CCCC[C@@H]21)C(=O)OCC [perindopril erbumine]
[3]; alcohol
  solubility in alcohol: freely soluble
[3]; chloroform
  solubility in chloroform: freely soluble
[3]; water
  solubility in water: 60 % w/w
